Laboratory results as given in patent US20120301551A1, “COMPOUNDS AND COMPOSITIONS FOR TREATING NEURONAL DEATH OR NEUROLOGICAL DYSFUNCTION” (Neurotech Pharmaceuticals Co., Ltd., priority 2005, published 2012).

Assays:
[1] = test system: neuron-rich cortical cell cultures; assay: serum deprivation-induced neuronal cell apoptosis; type: cell-based, mouse; details: 24 hr, 5 mM Li^+, 100 μM zVADfmk, 1 μM 2-hydroxy TTBA
Experimental: (B) Neuron-rich cortical cell cultures (DIV 7) were deprived of serum, alone or with addition of 100 μM zVADfmk, 1 μM 2-hydroxy TTBA, or 5 mM Li^+. Neuronal death was analyzed 24 hr later by counting viable neurons excluding trypan (mean±SEM, n=4). *, Significant difference from the relevant control (serum deprivation alone), p<0.05 using ANOVA and Student-Neuman-Keuls test. (C) Western blot analysis of FADD antibody following immunoprecipitation with Fas antibody in the same samples above.
Additional experiments were performed to examine if targeting both neuronal cell necrosis and apoptosis would result in synergic neuroprotection in […] transgenic mice. […] Neuronal cell apoptosis was induced by serum deprivation in neuron-rich cortical cell cultures as reported, which was prevented by addition of 5 mM Li^+ as well as zVADfmk, a broad spectrum inhibitor of caspases (FIG. 5B). […] Additional experiments were performed to examine if Li^+ would prevent Fas signaling pathway. […] This implies that 2-Hydroxy-TTBA and Li^+ blocks oxidative neuronal cell necrosis and apoptosis, respectively.

[2] = test system: Fas, FADD, cleaved caspase-8 and caspase-3; assay: Fas pathway in lumbar spinal cord of G93A transgenic mice (Western blot); details: at 12 weeks of age; 2-hydroxy-TTBA 30 mg/kg/d, Li^+ 200 mg/kg/d in the diet
Experimental: G93A transgenic mice received oral administration of 2-hydroxy-TTBA (30 mg/kg/d) in the diet from 8 weeks of age.

[3] = hydroxyl radical scavenging in test tube; type: biochemical
Experimental: (§1) In addition, scavenging effects of superoxide and hydroxyl radical in test tube were evaluated. Hydroxyl radical scavenging activities of 0.1 uM, 1 uM and 10 uM of chemical 01 were 13.35%, 33.33% and 71.72%, respectively.

[4] = superoxide scavenging in test tube; type: biochemical; details: read-out: superoxide scavenging effect (IC50 value)
Experimental: as §1

IL-6 = assay: LPS-induced IL-6 production in BV2 cells; type: cell-based
Experimental: Suppressing effects of chemical 01 in BV2 cell lines on production of IL-1β, IL-6 or TNF-α were evaluated. BV2 cells were exposed to 1 ug/ml LPS (inflammation-inducing material) with inclusion of chemical 01 at indicated doses. After 4 hours, supernatant were collected and concentrations of TNF-a were evaluated. In addition, BV2 cells were treated by the same method, and 24 hours later, supernatant were collected and concentrations of IL-1β and IL-6 were evaluated (mean±SEM, n=3). BV2 cells treated with LPS only were used as control.

Tg2576 transgenic mice = assay: elevated plus maze in Tg2576 transgenic mice; type: in vivo, mouse; details: 25 mg/kg/day for 5 months (9~14 months)
Experimental: 14 month-old Tg2576 transgenic mice were fed chow alone, or containing 25 mg/kg/day of chemical 01, for 5 months (9˜14 months). After administration of 5 months, Elevated plus maze test was performed to evaluate the behavior improvement. Elevated plus maze has two open arms (30 cm×6 cm×0.5 cm) and two closed arms (30 cm×6 cm×15 cm), and also has 6 cm×6 cm of center platform. In Elevated plus maze test, mouse was carefully laid in the center with the head of the mouse toward open arm. The time that the mouse spent in the open arm was recorded for 5 minutes (mean±SEM, n=2).
14 month-old Tg2576 transgenic mice were fed chow alone (saline only), or containing 25 mg/kg/day of chemical—01, for 5 months (9˜14 month).
The anxiety function was analyzed by elevated plus maze test. The time spent in the open arm was recorded in the elevated plus maze.

[5] = test system: APPswe/PS1deltaE9 double transgenic mice; assay: amyloid plaque burden in APPswe/PS1deltaE9 double transgenic mice (Thioflavin-S); type: in vivo, mouse
Experimental: The treatment with 25 mg/kg/day of chemical 01 for 7 months (from 3.5 to 10.5 month-old APP/PS1) caused a significant 53% reduction in amyloid plaque burden compared to APP/PS1 dementia mouse fed with general chow only.
10.5 month-old APPswe/PS1deltaE9 double transgenic mice were fed chow alone (saline only), or containing 25 mg/kg/day of chemical—01, for 7.5 months before being sacrificed (3˜10.5 month). 18-20 μm brain sections stained 1% Thioflavin-S for 5 min and observed under fluorescence microscope system.

APP/PS1 mouse = assay: plasma Aβ40/Aβ42 levels in APP/PS1 mouse; type: in vivo
Experimental: Also, treatment with 25 mg/kg/day of chemical 01 for 5 days in 11.5 month-old APP/PS1 mouse caused a significant 44% reduction in SDS-insoluble Aβ42 levels in plasma and a significant 38% reduction in SDS-insoluble Aβ40 levels in plasma compared to APP/PS1 mouse fed with general chow only.
In further, treatment with 25 mg/kg/d of chemical—01 for 7 months (from 3.5 to 10.5 months) caused a significant 42% reduction in SDS-insoluble Aβ40 levels (data not shown). Also, treatment with 25 mg/kg/d of chemical—01 for 5 days in 11.5 months caused a significant 40% reduction in SDS-insoluble Aβ40/Aβ42 levels in plasma (data not shown).

G93A mouse = assay: oxidative toxicity in G93A mouse (nitrotyrosine immunostaining); type: in vivo; details: G93A mice at ages of 10 weeks
Experimental: Reactive oxygen species (ROS) produced in progress of ALS disease was evaluated in G93A mouse.

G93A mice = assay: inflammatory cytokine mRNA in lumbar segments of G93A mice (RT-PCR); type: in vivo, mouse; details: 16 week-old G93A mice, 5 mg/kg/day or 20 mg/kg/day in chow
Experimental: Lumbar segments of 16 week-old G93A mice fed with general chow only, and 16 week-old G93A mice fed with chow containing 5 mg/kg/day or 20 mg/kg/day of chemical 01 were extracted and their RNA were separated. The mRNA expression degrees of TNF-a and IL-16, cytokines inducing inflammation, were evaluated through RT-PCT.

TNF-a = assay: LPS-induced TNF-a in mesencephalic cultures; type: cell-based; details: 5 ng/ml LPS; 0-100 uM; 3 hours
Experimental: Mesencephalic nerve cell cultures were pre-treated with 5 ng/ml of LPS for 30 minutes to make a cull culture model of Parkinson's disease, and then 0-100 uM of chemical 01 were added. The level of NO was evaluated 24 hours after administration of chemical 01, and the level of TNF-a was evaluated 3 hours after administration of chemical 01 (mean±SEM, n=7-12 culture well/each group).

[6] = 25 mg/kg/day for 5 days in 11.5 month-old APP/PS1 mouse

For `O=C(O)c1cc(NCc2c(F)c(F)c(C(F)(F)F)c(F)c2F)ccc1O` [2-Hydroxy-TTBA, 2-hydroxy-5-(2,3,5,6-tetrafluoro-4-trifluoromethyl-benzylamino)-benzoic acid], the “serum deprivation-induced neuronal cell apoptosis, effect in words” value [1] was “not attenuated”, the “serum deprivation-induced neuronal cell apoptosis, effect in words” value ([1]; listed as 2-hydroxy TTBA) was “not” and the “levels of Fas, FADD, cleaved caspase-8 and caspase-3 (Fas pathway) in lumbar spinal cord” value [2] was “slightly attenuated”.

With `O=C(O)c1cc(NCCc2ccc(C(F)(F)F)cc2)ccc1O` [chemical 01, 2-Hydroxy-5-[2-(4-trifluoromethyl-phenyl)-ethylamino]-benzoic acid] the IC50 [3] was 0.97 µM, the “hydroxyl radical scavenging activity” value ([3]; 0.1 uM) was 13.35% and the “hydroxyl radical scavenging activity” value ([3]; 1 uM) was 33.33%. The “hydroxyl radical scavenging activity” value ([3]; 10 uM) was 71.72%, the IC50 ([4]; NADH/PMS system) was 26.1 µM and the IC50 ([4]; X/XO system) was over 100 µM. The “decrease of IL-6 released into media” value (IL-6; 100 uM, 1 ug/ml LPS, 24 hours) was about 70%, the “IL-6 decrease, in words” value (IL-6; 1~100 uM) was “dose-dependent manner” and the “time spent in the open arm” value (Tg2576 transgenic mice) was “decreased the time”. The “time spent in the open arm” value (Tg2576 transgenic mice; listed as chemical—01) was “spent less time”, the “reduction in amyloid plaque burden” value ([5]; 25 mg/kg/day for 7 months (from 3.5 to 10.5 month-old)) was 53% and the “reduction in plaque burden” value ([5]; 25 mg/kg/day for 7.5 months (3~10.5 month)) was 53.4%. For the same molecule, the “reduction in amyloid plaque burden” value ([5]; 25 mg/kg/day, from 8.5 to 12.5 month-old (4 months)) was 49.3%, the “reduction in SDS-insoluble Aβ40/Aβ42 levels in plasma” value (APP/PS1 mouse; 25 mg/kg/d for 5 days in 11.5 months) was 40% and the “reduction in SDS-insoluble Aβ40 levels in plasma” value (APP/PS1 mouse; [6]) was 38%. The “reduction in SDS-insoluble Aβ42 levels in plasma” value (APP/PS1 mouse; [6]) was 44%, the “fluorescence intensity of nitrotyrosine (oxidative toxicity) in motor neurons” value (G93A mouse) was “decreased” and the “mRNA expression of TNF-a and IL-16, cytokines inducing inflammation” value (G93A mice) was “effectively reduced”. For the same molecule, the “increase of TNF-a caused by LPS” value (TNF-a) was “dose-dependent manner”.
